Our source for the inhibition values is patent publication US20220409643A1, “ROR Gamma T Inhibitors and Topical Uses Thereof” (Dermira, inc., priority 2019, published 2022).

Structures are written as SMILES.

One assay deals with IL17A. Kind of assay: skin Resident Immune Cell Assay (sRICA), Th17 model, IL17A protein in media. The note with it: 100 uM solution in 1% DMSO/OD applied topically to human skin; media collected 24 hours after Th17 activation. It is filed as cell-based. On the procedure:
A skin Resident Immune Cell Assay (sRICA) was used to test compounds for reduction of IL-17A protein upregulation in the Th17 sRICA model. In this model, human surgical skin waste was cultured in a transwell system, with the dermis in contact with cell culture media and the stratum corneum exposed to air. To perform the assay, each human skin sample was defatted and dermatomed to 750μm. Next, 8 mm punch biopsies were obtained and placed in a membrane transwell. The transwells were inserted into culture wells with complete media, and a cocktail of cytokines and antibodies were added to promote skin resident immune cell polarization.
RORγt inhibitors were prepared as a 100 uM solution in 1% DMSO/OD. […] of the prepared topical solution was applied to sRICA wells prepared for topical drug evaluation. Drugs were allowed to penetrate the skin overnight, for up to 24 hours prior to Th17 activation. Media was collected 24 hours after Th17 activation for IL17A protein assessment. IL17A protein was evaluated using the Quanterix IL17A detection kit on the SiMoA platform (via CRO Translational Biosciences). There was significant upregulation of IL17A with Th17 activation. Each study was normalized to the % max of IL17A production (i.e. the average IL17A concentration of Th17 activated skin alone) was set to 100%, all other values (untreated no activation and treated samples) were obtained as a percentage of this. […]
`COCC(C)(C)c1ccc(NC(=O)[C@H]2c3ccc(OC)cc3CCN2C(=O)c2cc(O)no2)cc1F` [(1R)-N-(3-fluoro-4-(1-methoxy-2-methylpropan-2-yl)phenyl)-2-((3-hydroxy-1,2-oxazol-5-yl)carbonyl)-6-methoxy-1,2,3,4-tetrahydroisoquinoline-1-carboxamide]: the inhibition (in general, the drop in the measured response relative to a control, in per cent) at 100 µM came out at 55%.

Consider `COc1ccc2c(c1)CCN(C(=O)Cc1cc(O)no1)[C@H]2C(=O)Nc1cc(F)c(C(C)(C)COCC(F)F)c(F)c1` [(1R)-N-(4-(1-(2,2-difluoroethoxy)-2-methylpropan-2-yl)-3,5-difluorophenyl)-2-((3-hydroxy-1,2-oxazol-5-yl)acetyl)-6-methoxy-1,2,3,4-tetrahydro-isoquinoline-1-carboxamide], for which the inhibition at 100 µM is 39.3%.

On to `COc1ccc2c(c1)CCN(C(=O)c1cc(O)no1)[C@H]2C(=O)Nc1cc(F)c(C(C)(C)COCC(F)F)c(F)c1` [(1R)-N-(4-(1-(2,2-difluoroethoxy)-2-methylpropan-2-yl)-3,5-difluorophenyl)-2-((3-hydroxy-1,2-oxazol-5-yl)carbonyl)-6-methoxy-1,2,3,4-tetarhydroisoquinoline-1-carboxamide], for which the inhibition at 100 µM was found to be 30.3%.

As to `COc1ccc2c(c1)CCN(C(=O)Cc1cc(O)no1)[C@H]2C(=O)Nc1cc(F)c(C(C)(C)COCC2CC2)c(F)c1` [(1R)-N-(4-(1-(cyclopropyl-methoxy)-2-methylpropan-2-yl)-3,5-difluorophenyl)-2-((3-hydroxy-1,2-oxazol-5-yl)acetyl)-6-methoxy-1,2,3,4-tetrahydro-isoquinoline-1-carboxamide], the inhibition at 100 µM is 61.7%.

`CCOCC(C)(C)c1c(F)cc(NC(=O)[C@H]2c3ccc(OC)cc3CCN2C(=O)Cc2cc(O)no2)cc1F` [(1R)-N-(4-(1-ethoxy-2-methylpropan-2-yl)-3,5-difluorophenyl)-2-((3-hydroxy-1,2-oxazol-5-yl)acetyl)-6-methoxy-1,2,3,4-tetrahydro-isoquinoline-1-carboxamide]: the inhibition at 100 µM turned out to be 54.9%.

For the compound `CCOCC(C)(C)c1c(F)cc(NC(=O)[C@H]2c3ccc(OC)cc3CCN2C(=O)c2cc(O)no2)cc1F` [(1R)-N-(4-(1-ethoxy-2-methylpropan-2-yl)-3,5-difluorophenyl)-2-((3-hydroxy-1,2-oxazol-5-yl)carbonyl)-6-methoxy-1,2,3,4-tetrahydro-isoquinoline-1-carboxamide], the inhibition at 100 µM turned out to be 56.1%.

With `COc1ccc2c(c1)CCN(C(=O)Cc1cc(O)no1)[C@H]2C(=O)Nc1cc(F)c(C(C)(C)C)c(F)c1` [(1R)-N-(4-tert-butyl-3,5-difluorophenyl)-2-((3-hydroxy-1,2-oxazol-5-yl)acetyl)-6-methoxy-1,2,3,4-tetrahydroisoquinoline-1-carboxamide], the inhibition at 100 µM is -10.9%.

Regarding `COc1ccc2c(c1)CCN(C(=O)Cc1cc(O)no1)[C@H]2C(=O)Nc1ccc(C(C)(C)C)c(F)c1` [(1R)-N-(4-tert-butyl-3-fluorophenyl)-2-((3-hydroxy-1,2-oxazol-5-yl)acetyl)-6-methoxy-1,2,3,4-tetrahydroisoquinoline-1-carboxamide], the inhibition at 100 µM worked out at 23.6%.

`COCc1ccc2c(c1)CCN(C(=O)Cc1cc(O)no1)[C@H]2C(=O)Nc1ccc(C(C)(C)C)c(F)c1` [(1R)-N-(4-tert-butyl-3-fluorophenyl)-2-((3-hydroxy-1,2-oxazol-5-yl)acetyl)-6-methoxymethyl-1,2,3,4-tetrahydroisoquinoline-1-carboxamide]: the inhibition at 100 µM amounted to 60.8%.

Consider `COCc1ccc2c(c1)CCN(C(=O)Cc1cc(O)no1)[C@H]2C(=O)Nc1cc(F)c2c(c1)CCC2(C)C` [(1R)-N-(7-fluoro-1,1-dimethyl-2,3-dihydro-1H-inden-5-yl)-2-((3-hydroxy-1,2-oxazol-5-yl)acetyl)-6-(methoxymethyl)-1,2,3,4-tetrahydroisoquinoline-1-carboxamide], for which the inhibition at 100 µM was found to be 50.5%.

In the case of `COc1ccc2c(c1)CCN(C(=O)Cc1cc(O)no1)[C@H]2C(=O)Nc1cc(F)c2c(c1)CCC2(C)C` [(1R)-N-(7-fluoro-1,1-dimethyl-2,3-dihydro-1H-inden-5-yl)-2-((3-hydroxy-1,2-oxazol-5-yl)acetyl)-6-methoxy-1,2,3,4-tetrahydroisoquinoline-1-carboxamide], the inhibition at 100 µM came to 33.9%.

Take `COCc1ccc2c(c1)CCN(C(=O)c1cc(O)no1)[C@H]2C(=O)Nc1cc(F)c2c(c1)CCC2(C)C` [(1R)-N-(7-fluoro-1,1-dimethyl-2,3-dihydro-1H-inden-5-yl)-2-((3-hydroxy-1,2-oxazol-5-yl)carbonyl)-6-(methoxymethyl)-1,2,3,4-tetrahydroisoquinoline-1-carboxamide]: the inhibition at 100 µM worked out at 59.1%.

The same assay, now with this note: Homo sapiens, 24 h, 100 uM solution in 1% DMSO/OD applied topically to human skin; media collected 24 hours after Th17 activation.
Turning to `COCc1ccc2c(c1)CCN(C(=O)Cc1cc(O)no1)[C@H]2C(=O)Nc1ccc([Si](C)(C)C)c(F)c1` [(1R)-N-(3-fluoro-4-(trimethylsilyl)phenyl)-2-((3-hydroxy-1,2-oxazol-5-yl)acetyl)-6-(methoxymethyl)-1,2,3,4-tetrahydroisoquinoline-1-carboxamide], the inhibition at 100 µM was 69.9%.

`COc1ccc2c(c1)CCN(C(=O)Cc1cc(O)no1)[C@H]2C(=O)Nc1ccc([Si](C)(C)C)c(F)c1` [(1R)-N-(3-fluoro-4-(trimethylsilyl)phenyl)-2-((3-hydroxy-1,2-oxazol-5-yl)acetyl)-6-methoxy-1,2,3,4-tetrahydroisoquinoline-1-carboxamide]: the inhibition at 100 µM is 31.2%.

As for `COCc1ccc2c(c1)CCN(C(=O)c1cc(O)no1)[C@H]2C(=O)Nc1ccc([Si](C)(C)C)c(F)c1` [(1R)-N-(3-fluoro-4-(trimethylsilyl)phenyl)-2-((3-hydroxy-1,2-oxazol-5-yl)carbonyl)-6-methoxymethyl-1,2,3,4-tetrahydroisoquinoline-1-carboxamide], the inhibition at 100 µM is 62.2%.

As for `COCc1ccc([C@@H](NC(=O)Cn2ccc(=O)[nH]c2=O)C(=O)Nc2ccc([Si](C)(C)C)c(F)c2)cc1` [(2R)-2-(((2,4-dioxo-3,4-dihydropyrimidin-1(2H)-yl)acetyl)amino)-N-(3-fluoro-4-(trimethylsilyl)phenyl)-2-(4-(methoxymethyl)phenyl)acetamide], the inhibition at 100 µM was 68.6%.

As for `COCc1ccc([C@@H](NC(=O)CN2C(=O)CNC2=O)C(=O)Nc2ccc([Si](C)(C)C)c(F)c2)cc1` [(2R)-2-(((2,5-dioxoimidazolidin-1-yl)acetyl)amino)-N-(3-fluoro-4-(trimethylsilyl)phenyl)-2-(4-(methoxymethyl)phenyl)acetamide], the inhibition at 100 µM came to 36.3%.

Consider `COCc1ccc([C@@H](NC(=O)Cc2nnc(C)o2)C(=O)Nc2cc(F)c([Si](C)(C)C)cc2F)cc1` [(2R)-N-(2,5-difluoro-4-(trimethylsilyl)phenyl)-2-(4-(methoxymethyl)phenyl)-2-(((5-methyl-1,3,4-oxadiazol-2-yl)acetyl)amino)acetamide], for which the inhibition at 100 µM was 75.7%.

As for `COCc1ccc([C@@H](NC(=O)Cn2nc(C)ccc2=O)C(=O)Nc2cc(F)c([Si](C)(C)C)c(F)c2)cc1` [(2R)-N-(3,5-difluoro-4-(trimethylsilyl)phenyl)-2-(4-(methoxymethyl)phenyl)-2-(((3-methyl-6-oxopyridazin-1(6H)-yl)acetyl)amino)acetamide], the inhibition at 100 µM is 38.7%.
